# Experimental data as given in patent publication EP4685153A1 (priority 2023, dated 2024).
# Residues, ends and D or L forms follow the SMILES beside them. *: point of attachment. Succinyl(4-O-cholesteryl) = CC(C)CCC[C@@H](C)[C@H]1CC[C@H]2[C@@H]3CC=C4C[C@@H](OC(=O)CCC(=O)*)CC[C@]4(C)[C@H]3CC[C@]12C
# Assays:
# [1] = system: HIV-1 strain NL4-3 pseudovirus; settings: for IC50: strain NL4-3 pseudovirus
# [2] = system: HIV-1 strain JRFL pseudovirus; settings: for IC50: strain JRFL pseudovirus
# [3] = system: HIV-1 strain SG3.1 living virus; settings: for IC50: strain SG3.1 living virus
# N44 = N44 (Human immunodeficiency virus type 1 group M subtype B, UniProt P04578); assay: Circular dichroism of lipopeptide complex with target sequence N44; settings: CD; for Tm value of the mixture with N44: [θ]222, 20-98 °C at 2 °C/min; for α-helix content of the mixture with N44: lipopeptide and N44 each 10 µM in PBS pH 7.2
# Chain of N44 (P04578 538-581): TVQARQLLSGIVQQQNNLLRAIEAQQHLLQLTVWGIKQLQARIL
# [4] = Circular dichroism of lipopeptide alone; type: physicochemical; settings: CD, 10 µM in PBS pH 7.2
# [5] = system: T20-resistant mutant strains (HIV-1 strain NL4-3); settings: T20-resistant mutant strains ( strain NL4-3, 48 h)
# [6] = LP-124 versus LP-122, LP-125 versus LP-123
Structure (SMILES),IC50 [1] [pM],IC50 [2] [pM],IC50 [3] [pM],Tm value of the mixture with N44 (N44) [°C],α-helix content of the mixture with N44 (N44) [%],"α-helix content, lipopeptide alone [4] [%]",IC50 [5] [pM],"activity increased as compared to its template, NL4-3 pseudovirus [1, 6]","activity increased as compared to its template, JRFL pseudovirus [2, 6] [folds]","activity increased as compared to its template, SG3.1 living virus [3, 6] [folds]"
CC[C@H](C)[C@H](NC(=O)[C@H](CCCCN)NC(=O)[C@H](CCCCN)NC(=O)[C@H](CCC(=O)O)NC(=O)[C@H](Cc1c[nH]c2ccccc12)NC(=O)[C@H](CCC(=O)O)NC(=O)[C@H](CCC(=O)O)NC(=O)[C@H](Cc1c[nH]c2ccccc12)NC(=O)[C@@H](NC(C)=O)[C@@H](C)O)C(=O)N[C@@H](CCC(=O)O)C(=O)N[C@@H](CCC(=O)O)C(=O)N[C@@H](CC(C)C)C(=O)N[C@@H](CCC(=O)O)C(=O)N[C@@H](CCCCN)C(=O)N[C@@H](CCCCN)C(=O)N[C@H](C(=O)N[C@@H](CCC(=O)O)C(=O)N[C@@H](CCC(=O)O)C(=O)N[C@@H](CC(C)C)C(=O)N[C@@H](CC(C)C)C(=O)N[C@@H](CCCCN)C(=O)N[C@@H](CCCCN)C(=O)N[C@@H](C)C(=O)N[C@@H](CCC(=O)O)C(=O)N[C@@H](CCC(=O)O)C(=O)N[C@@H](CCC(N)=O)C(=O)N[C@@H](CCC(N)=O)C(=O)N[C@@H](CCCCN)C(=O)N[C@@H](CCCCN)C(=O)N[C@@H](CC(N)=O)C(=O)N[C@@H](CCC(=O)O)C(=O)N[C@@H](CCC(N)=O)C(=O)N[C@@H](CCC(=O)O)C(=O)N[C@@H](C)C(=O)N[C@@H](C)C(=O)N[C@@H](C)C(=O)N[C@@H](CCCCN)C(=O)N[C@@H](CCCCNC(=O)CCC(=O)O[C@H]1CC[C@@]2(C)C(=CC[C@H]3[C@@H]4CC[C@H]([C@H](C)CCCC(C)C)[C@@]4(C)CC[C@@H]32)C1)C(N)=O)[C@@H](C)CC [LP-122] (Ac-TWEEWEKKIEELEKKIEELLKKAEEQQKKNEQEAAAKK(Succinyl(4-O-cholesteryl))-NH2),22.5,41.5,9.05,> 98,81,65,–,–,–,–
"CC[C@H](C)[C@H](NC(=O)[C@H](CCCCN)NC(=O)[C@H](CCC(N)=O)NC(=O)[C@H](CCC(=O)O)NC(=O)[C@H](Cc1ccc(O)cc1)NC(C)=O)C(=O)N[C@@H](CCC(=O)O)C(=O)N[C@@H](CCC(=O)O)C(=O)N[C@@H](CC(C)C)C(=O)N[C@@H](CC(C)C)C(=O)N[C@@H](CCCCN)C(=O)N[C@@H](CCCCN)C(=O)N[C@@H](C)C(=O)N[C@@H](CCC(=O)O)C(=O)N[C@@H](CCC(=O)O)C(=O)N[C@@H](CCC(N)=O)C(=O)N[C@@H](CCC(N)=O)C(=O)N[C@@H](CCCCN)C(=O)N[C@@H](CCCCN)C(=O)N[C@@H](CC(N)=O)C(=O)N[C@@H](CCC(=O)O)C(=O)N[C@@H](CCC(=O)O)C(=O)N[C@@H](CC(C)C)C(=O)N[C@@H](CCCCN)C(=O)N[C@@H](CCCCN)C(=O)N[C@@H](CC(C)C)C(=O)N[C@@H](CCC(=O)O)C(=O)N[C@@H](CCCCNC(=O)CCC(=O)O[C@H]1CC[C@@]2(C)C(=CC[C@H]3[C@@H]4CC[C@H]([C@H](C)CCCC(C)C)[C@@]4(C)CC[C@@H]32)C1)C(N)=O [LP-98, reference compound] (Ac-YEQKIEELLKKAEEQQKKNEELKKLEK(Succinyl(4-O-cholesteryl))-NH2)",–,–,–,–,–,–,2660,–,–,–
CC[C@H](C)[C@H](NC(=O)[C@H](CCCCN)NC(=O)[C@H](CCCCN)NC(=O)[C@H](CCC(=O)O)NC(=O)[C@H](Cc1ccc(O)cc1)NC(=O)[C@H](CCC(=O)O)NC(=O)[C@H](CCC(=O)O)NC(=O)[C@H](Cc1ccc(O)cc1)NC(=O)[C@H](CCC(=O)O)NC(C)=O)C(=O)N[C@@H](CCC(=O)O)C(=O)N[C@@H](CCC(=O)O)C(=O)N[C@@H](CC(C)C)C(=O)N[C@@H](CCC(=O)O)C(=O)N[C@@H](CCCCN)C(=O)N[C@@H](CCCCN)C(=O)N[C@H](C(=O)N[C@@H](CCC(=O)O)C(=O)N[C@@H](CCC(=O)O)C(=O)N[C@@H](CC(C)C)C(=O)N[C@@H](CC(C)C)C(=O)N[C@@H](CCCCN)C(=O)N[C@@H](CCCCN)C(=O)N[C@@H](C)C(=O)N[C@@H](CCC(=O)O)C(=O)N[C@@H](CCC(=O)O)C(=O)N[C@@H](CCC(N)=O)C(=O)N[C@@H](CCC(N)=O)C(=O)N[C@@H](CCCCN)C(=O)N[C@@H](CCCCN)C(=O)N[C@@H](CC(N)=O)C(=O)N[C@@H](CCC(=O)O)C(=O)N[C@@H](C)C(=O)N[C@@H](C)C(=O)N[C@@H](C)C(=O)N[C@@H](CCCCN)C(=O)N[C@@H](CCCCNC(=O)CCC(=O)O[C@H]1CC[C@@]2(C)C(=CC[C@H]3[C@@H]4CC[C@H]([C@H](C)CCCC(C)C)[C@@]4(C)CC[C@@H]32)C1)C(N)=O)[C@@H](C)CC [LP-126] (Ac-EYEEYEKKIEELEKKIEELLKKAEEQQKKNEAAAKK(Succinyl(4-O-cholesteryl))-NH2),3.85,6.08,1.65,92,66,51,–,–,–,–
CC[C@H](C)[C@H](NC(=O)[C@H](CCCCN)NC(=O)[C@H](CCCCN)NC(=O)[C@H](CCC(=O)O)NC(=O)[C@H](Cc1ccc(O)cc1)NC(=O)[C@H](CCC(=O)O)NC(=O)[C@H](CCC(=O)O)NC(=O)[C@H](Cc1ccc(O)cc1)NC(=O)[C@@H](NC(C)=O)[C@@H](C)O)C(=O)N[C@@H](CCC(=O)O)C(=O)N[C@@H](CCC(=O)O)C(=O)N[C@@H](CC(C)C)C(=O)N[C@@H](CCC(=O)O)C(=O)N[C@@H](CCCCN)C(=O)N[C@@H](CCCCN)C(=O)N[C@H](C(=O)N[C@@H](CCC(=O)O)C(=O)N[C@@H](CCC(=O)O)C(=O)N[C@@H](CC(C)C)C(=O)N[C@@H](CC(C)C)C(=O)N[C@@H](CCCCN)C(=O)N[C@@H](CCCCN)C(=O)N[C@@H](C)C(=O)N[C@@H](CCC(=O)O)C(=O)N[C@@H](CCC(=O)O)C(=O)N[C@@H](CCC(N)=O)C(=O)N[C@@H](CCC(N)=O)C(=O)N[C@@H](CCCCN)C(=O)N[C@@H](CCCCN)C(=O)N[C@@H](CC(N)=O)C(=O)N[C@@H](CCC(=O)O)C(=O)N[C@@H](CCC(N)=O)C(=O)N[C@@H](CCC(=O)O)C(=O)N[C@@H](C)C(=O)N[C@@H](C)C(=O)N[C@@H](C)C(=O)N[C@@H](CCCCN)C(=O)N[C@@H](CCCCNC(=O)CCC(=O)O[C@H]1CC[C@@]2(C)C(=CC[C@H]3[C@@H]4CC[C@H]([C@H](C)CCCC(C)C)[C@@]4(C)CC[C@@H]32)C1)C(N)=O)[C@@H](C)CC [LP-124] (Ac-TYEEYEKKIEELEKKIEELLKKAEEQQKKNEQEAAAKK(Succinyl(4-O-cholesteryl))-NH2),2.07,5.93,1.06,86,79,64,–,about 11 folds,~7,~9
CC[C@H](C)[C@H](NC(=O)[C@H](CCCCN)NC(=O)[C@H](CCCCN)NC(=O)[C@H](CCC(=O)O)NC(=O)[C@H](Cc1c[nH]c2ccccc12)NC(=O)[C@H](CCC(=O)O)NC(=O)[C@H](CCC(=O)O)NC(=O)[C@H](Cc1c[nH]c2ccccc12)NC(=O)[C@@H](NC(=O)[C@H](CCSC)NC(=O)[C@H](CCC(=O)O)NC(C)=O)[C@@H](C)O)C(=O)N[C@@H](CCC(=O)O)C(=O)N[C@@H](CCC(=O)O)C(=O)N[C@@H](CC(C)C)C(=O)N[C@@H](CCC(=O)O)C(=O)N[C@@H](CCCCN)C(=O)N[C@@H](CCCCN)C(=O)N[C@H](C(=O)N[C@@H](CCC(=O)O)C(=O)N[C@@H](CCC(=O)O)C(=O)N[C@@H](CC(C)C)C(=O)N[C@@H](CC(C)C)C(=O)N[C@@H](CCCCN)C(=O)N[C@@H](CCCCN)C(=O)N[C@@H](C)C(=O)N[C@@H](CCC(=O)O)C(=O)N[C@@H](CCC(=O)O)C(=O)N[C@@H](CCC(N)=O)C(=O)N[C@@H](CCC(N)=O)C(=O)N[C@@H](CCCCN)C(=O)N[C@@H](CCCCN)C(=O)N[C@@H](CC(N)=O)C(=O)N[C@@H](CCC(=O)O)C(=O)N[C@@H](C)C(=O)N[C@@H](C)C(=O)N[C@@H](C)C(=O)N[C@@H](CCCCN)C(=O)N[C@@H](CCCCNC(=O)CCC(=O)O[C@H]1CC[C@@]2(C)C(=CC[C@H]3[C@@H]4CC[C@H]([C@H](C)CCCC(C)C)[C@@]4(C)CC[C@@H]32)C1)C(N)=O)[C@@H](C)CC [LP-121] (Ac-EMTWEEWEKKIEELEKKIEELLKKAEEQQKKNEAAAKK(Succinyl(4-O-cholesteryl))-NH2),52,42.4,9.88,> 98,81,69,–,–,–,–
